This is an account of results in patent US20230365530A1, “QUINAZOLINE-2,4-DIAMINE DERIVATIVE AND PHARMACEUTICAL COMPOSITION FOR PREVENTING OR TREATING CANCER COMPRISING SAME AS ACTIVE INGREDIENT” (THE ASEAN FOUNDATION, priority 2020, published 2023).

For assay [1], the target named is EHMT2 (Euchromatic histone-lysine N-methyltransferase 2) (Homo sapiens (Human), UniProt Q96KQ7). Briefly: EHMT2 enzyme inhibition, LANCE TR-FRET. It is filed as biochemical. Conditions: histone H3 peptide, 1 hour at room temperature. In short, it runs like this:
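EHMT2/G9a enzyme preincubated 10 min with SAM and compounds (1 nM–100 μM, 4× stocks), then reacted 1 hour at room temperature with biotinylated histone H3 peptide (2 μM, 4× stock). H3K9 methylation detected by Eu-antibody/ULight-streptavidin TR-FRET at 665 nm; background-subtracted activity expressed relative to 4% DMSO vehicle; IC50 calculated.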
(Time-resolved FRET reads energy transfer from a long-lived donor to a nearby acceptor.)

Assay [2] deals with pancreatic cancer cell line Miapaca 2. In words: Cancer cell growth inhibition test, CellTiter-glo. The class given is cell-based. Conditions: Homo sapiens, MIA PaCa-2, Miapaca 2 cells, 72 hours. As to the method: In order to confirm the effect of reducing cell viability by inhibiting EHMT2 by the compounds of Examples in cells, the effect of inhibiting cancer cell growth was analyzed using CellTiter-glo™ analysis (Promega, cat. G7573) method. Specifically, the amount of ATP in living cells was measured and IC50 values were calculated using software to compare the inhibitory effect of the compounds of Examples on cell viability. First, the pancreatic cancer cell line Miapaca 2 was placed in a 96-well cell culture plate at the density of 1×10^3 cells/well and cultured overnight, and then each well of the plate was treated with 1 nM to 100 μM of the compounds of Examples 1 to 89 at each concentration for 72 hours (The final concentration of DMSO in each well was 0.5% or less). CellTiter-glo 2.0 reagent was mixed with a medium at 20% of the amount of the medium, reacted at room temperature for 10 minutes, and then 80 μL of the mixture was transferred to each well of a 96-well plate, followed by measuring the degree of luminescence.
A general note: In ATP-based viability assays light output follows the ATP content of the culture.

The subject of the next assay is Miapaca2 xenograft model. Briefly: Tumor growth inhibition in Miapaca2 xenograft model. The class given is in vivo, Athymic nude mouse. Conditions: 20 mg/kg intraperitoneally once a day for 4 weeks. The method, then:
In order to confirm the tumor growth inhibitory effect of the compounds of Examples according to the present invention in a xenograft model in which the human pancreatic cancer cell line was transplanted, a cancer growth inhibition experiment was conducted in the Miapaca2 xenograft model.
Specific experimental methods are as follows. The frozen Miapaca-2 cell line was thawed and cultured in DMEM (Dulbecco's modified Eagle's medium) supplemented with 10% FBS and 1% penicillin-streptomycin in a 37° C., 5% CO2 incubator. The thawed cells were cultured for more than one week, and subcultured at intervals of 2˜3 days, confirming that there was no infection with bacteria, yeast (cell image) and mycoplasma. The cells were stained with trypan blue, and those having a survival rate of 90% or more were used for transplantation. The cells were suspended using trypsin-EDTA and then suspended in a cold solution (PBS:matrigel=6:4). Miapaca-2 cells (4×10^6 cells/[…]) were subcutaneously transplanted under the right scapula of the Athymic nude mouse, which had been acclimated for about 1 week. From the 3rd day after the transplantation, tumor formation and growth were observed, and the volume of the tumor was calculated according to the following equation using the measured tumor length.
[Tumor volume=(a^2b)/2, a: short diameter, b: long diameter]
When the average tumor volume of all mice on the day after tumor transplantation was 80±20 mm^3, the mice were grouped by paired-matching. Drugs were dissolved in 40% polyethylene glycol 400+16% 2-hydroxypropyl-b-cyclodextrin. The drugs were intraperitoneally administered at 20 mg/kg once a day for 4 weeks. A tumor growth curve was prepared using the tumor volume from the start date of drug administration to the end of the test. The results are shown in FIG. 1, and the tumor growth inhibition rates of the compounds of Examples to the control group are shown in Table 4.

In general, pIC50 refers to −log10 of the IC50, conventionally taken in molar units.

pIC50: −log10 of the molar value. Bounds are passed on as bounds.

EHMT2 (Euchromatic histone-lysine N-methyltransferase 2), sequence (Q96KQ7 whole entry): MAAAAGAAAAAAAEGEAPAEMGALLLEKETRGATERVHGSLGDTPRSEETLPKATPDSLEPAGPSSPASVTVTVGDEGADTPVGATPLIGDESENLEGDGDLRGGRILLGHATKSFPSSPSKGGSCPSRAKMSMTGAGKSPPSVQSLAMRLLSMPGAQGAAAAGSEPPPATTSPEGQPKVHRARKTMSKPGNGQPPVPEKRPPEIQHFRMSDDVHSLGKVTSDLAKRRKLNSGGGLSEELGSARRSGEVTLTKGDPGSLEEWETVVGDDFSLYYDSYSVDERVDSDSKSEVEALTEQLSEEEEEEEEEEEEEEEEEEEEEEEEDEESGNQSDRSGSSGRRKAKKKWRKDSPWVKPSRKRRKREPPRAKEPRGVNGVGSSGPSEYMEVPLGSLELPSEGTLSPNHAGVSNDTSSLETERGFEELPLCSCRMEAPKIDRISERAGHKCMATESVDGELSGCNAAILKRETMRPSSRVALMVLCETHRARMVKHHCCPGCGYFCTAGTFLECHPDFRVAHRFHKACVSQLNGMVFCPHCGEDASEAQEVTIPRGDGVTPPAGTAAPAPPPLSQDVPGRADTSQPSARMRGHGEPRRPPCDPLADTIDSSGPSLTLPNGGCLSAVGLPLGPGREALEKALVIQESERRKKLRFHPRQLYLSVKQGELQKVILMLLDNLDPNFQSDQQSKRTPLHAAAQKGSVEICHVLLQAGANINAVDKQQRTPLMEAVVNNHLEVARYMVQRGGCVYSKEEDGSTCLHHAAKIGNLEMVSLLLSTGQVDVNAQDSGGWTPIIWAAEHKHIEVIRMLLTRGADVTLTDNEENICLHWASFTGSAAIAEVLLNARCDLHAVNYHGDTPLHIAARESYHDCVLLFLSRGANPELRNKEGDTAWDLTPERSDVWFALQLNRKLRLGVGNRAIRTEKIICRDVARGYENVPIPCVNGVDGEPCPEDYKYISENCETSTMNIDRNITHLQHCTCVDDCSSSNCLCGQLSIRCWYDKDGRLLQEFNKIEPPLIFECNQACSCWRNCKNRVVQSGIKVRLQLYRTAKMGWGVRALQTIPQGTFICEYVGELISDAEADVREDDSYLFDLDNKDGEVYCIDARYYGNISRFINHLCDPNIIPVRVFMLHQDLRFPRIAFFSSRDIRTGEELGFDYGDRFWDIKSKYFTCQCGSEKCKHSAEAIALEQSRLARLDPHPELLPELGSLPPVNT

Take `COc1cc2c(NC3CCN(C(C)C)CC3)nc(N3CCCC3)nc2cc1C#CCCN1CCCC1` [Example 42, N-(1-isopropylpiperidine-4-yl)-6-methoxy-2-(pyrrolidine-1-yl)-7-(4-(pyrrolidine-1-yl)-1-butyne-1-yl)quinazoline-4-amine]: the values for the pIC50 in assay [1] and in assay [2] were greater than 7.00 and 6.52, respectively.

On to `COc1cc2c(NC3CCN(C(C)C)CC3)nc(N(C)C)nc2cc1C#CCCN1CCCC1` [Example 49, N4-(1-isopropylpiperidine-4-yl)-6-methoxy-N2,N2-dimethyl-7-(4-(pyrrolidine-1-yl)-1-butyne-1-yl)quinazoline-2,4-diamine], for which the pIC50 in assay [1] was greater than 7.00; in assay [2] it was 6.48. On to `COc1cc2c(NC3CCN(C4CC4)CC3)nc(N3CCCN(C)CC3)nc2cc1C#CCCN1CCCC1` [Example 56, N-(1-cyclopropylpiperidine-4-yl)-6-methoxy-2-(4-methyl-1,4-diazepane-1-yl)-7-(4-(pyrrolidine-1-yl)-1-butyne-1-yl)quinazoline-4-amine], for which the pIC50 is greater than 7.00 in assay [1] and 6.72 in assay [2]. With `COc1cc2c(NC3CCN(C(C)C)CC3)nc(N(C)C)nc2cc1C#CCCN(C)C` [Example 14], the figures for the pIC50 in assay [1] and in assay [2] were greater than 7.00 and 6.47, respectively. As for `COc1cc2c(NC3CCN(C4CC4)CC3)nc(N(C)C)nc2cc1C#CCCN1CCCC1` [Example 55, N4-(1-cyclopropylpiperidine-4-yl)-6-methoxy-N2,N2-dimethyl-7-(4-(pyrrolidine-1-yl)-1-butyne-1-yl)quinazoline-2,4-diamine], the “Tumor growth inhibition rate (TGI)” value in the assay on Miapaca2 xenograft model is reported as 31.80. Moreover, the values for the pIC50 in assay [1] and in assay [2] were greater than 7.00 and 6.51, respectively. Regarding `COc1cc2c(NC3CCN(C(C)C)CC3)nc(N3CC[C@@H](F)C3)nc2cc1C#CCCN1CCCC1` [Example 60, (R)-2-(3-fluoropyrrolidine-1-yl)-N-(1-isopropylpiperidine-4-yl)-6-methoxy-7-(4-(pyrrolidine-1-yl)-1-butyne-1-yl)quinazoline-4-amine], the results for the pIC50 in assay [1] and in assay [2] were greater than 7.00 and 6.17, respectively. Compound `COc1cc2c(NC3CCN(Cc4ccccc4)CC3)nc(N3CCCCC3)nc2cc1C#CCCN(C)C` [Example 18, N-(1-benzylpiperidine-4-yl)-7-(4-(dimethylamino)-1-butyne-1-yl)-6-methoxy-2-(piperidine-1-yl)quinazoline-4-amine] showed a pIC50 in assay [1] of 5.00 to 6.00.

In assay [1], `COc1cc2c(NC3CCN(C4CC4)CC3)nc(N3CCCCC3)nc2cc1C#CCCN1CCCC1` [Example 53, N-(1-cyclopropylpiperidine-4-yl)-6-methoxy-2-(piperidine-1-yl)-7-(4-(pyrrolidine-1-yl)-1-butyne-1-yl)quinazoline-4-amine] showed a pIC50 greater than 7.00. Same read-out and setting: as for `COc1cc2c(NCc3ccncc3)nc(N3CCCCC3)nc2cc1C#CCCN(C)C` [Example 32, 7-(4-(dimethylamino)-1-butyne-1-yl)-6-methoxy-2-(piperidine-1-yl)-N-(pyridine-4-ylmethyl)quinazoline-4-amine], the figure is 4.00 to 5.00; as for `COc1cc2c(NC3CCN(C(C)C)CC3)nc(N3CC(F)C3)nc2cc1C#CCCN1CCCC1` [Example 59, 2-(3-fluoroazetidine-1-yl)-N-(1-isopropylpiperidine-4-yl)-6-methoxy-7-(4-(pyrrolidine-1-yl)-1-butyne-1-yl)quinazoline-4-amine], greater than 7.00. The same measure, in the same setting: in the case of `CCCN1CCC(Nc2nc(N(C)C)nc3cc(C#CCCN4CCCC4)c(OC)cc23)CC1` [Example 83, 6-methoxy-N2,N-dimethyl-N4-(1-propylpiperidine-4-yl)-7-(4-(pyrrolidine-1-yl)-1-butyne-1-yl)quinazoline-2,4-diamine] it was greater than 7.00; in that of `COc1cc2c(NC3CC(C)(C)NC(C)(C)C3)nc(N3CCCCC3)nc2cc1C#CCCN(C)C` [Example 27, 7-(4-(dimethylamino)-1-butyne-1-yl)-6-methoxy-2-(piperidine-1-yl)-N-(2,2,6,6,-tetramethylpiperidine-4-yl)quinazoline-4-amine], 6.00 to 7.00. The same measure, in the same setting: in the case of `COc1cc2c(NC3CCN(C(C)C)CC3)nc(N3CCCCC3)nc2cc1C#CCCN1CC(F)C1` [Example 33, 7-(4-(3-fluoroazetidine-1-yl)-1-butyne-1-yl)-N-(1-isopropylpiperidine-4-yl)-6-methoxy-2-(piperidine-1-yl)quinazoline-4-amine] it was 4.00 to 5.00. `COc1cc2c(NC3CCN(C(C)C)CC3)nc(N3CCC4(CCCC4)C3)nc2cc1C#CCCN1CCCC1` [Example 40, N-(1-isopropylpiperidine-4-yl)-6-methoxy-7-(4-(pyrrolidine-1-yl)-1-butyne-1-yl)-2-(2-azaspiro[4.4]nonane-2-yl)quinazoline-4-amine] gave a pIC50 in assay [1] of 6.00 to 7.00.

The compound `CCN1CCC(Nc2nc(N3CCCCC3)nc3cc(C#CCCN4CCCC4)c(OC)cc23)CC1` [Example 51, N-(1-ethylpiperidine-4-yl)-6-methoxy-2-(piperidine-1-yl)-7-(4-(pyrrolidine-1-yl)-1-butyne-1-yl)quinazoline-4-amine] showed a pIC50 in assay [1] greater than 7.00. `COc1cc2c(NCCN(C)C)nc(N3CCCC3)nc2cc1C#CCCN1CCCC1` [Example 52, N1-(6-methoxy-2-(pyrrolidine-1-yl)-7-(4-(pyrrolidine-1-yl)-1-butyne-1-yl)quinazoline-4-yl)-N2,N2-dimethylethane-1,2-diamine]: the “Tumor growth inhibition rate (TGI)” value in the assay with Miapaca2 xenograft model worked out at 26.39. Moreover, the pIC50 is greater than 7.00 in assay [1] and 6.33 in assay [2]. In assay [1], `COc1cc2c(NC3CCN(C(C)C)CC3)nc(N3CCCN(C)CC3)nc2cc1C#CCCN1CCCC1` [Example 48, N-(1-isopropylpiperidine-4-yl)-6-methoxy-2-(4-methyl-1,4-diazepane-1-yl)-7-(4-(pyrrolidine-1-yl)-1-butyne-1-yl)quinazoline-4-amine] gave a negative logarithm of the IC50 (pIC50) greater than 7.00.

In turn, `COc1cc2c(NC3CCN(C4CC4)CC3)nc(N3CC[C@@H](F)C3)nc2cc1C#CCCN1CCCC1` [Example 74, (R)-N-(1-cyclopropylpiperidine-4-yl)-2-(3-fluoropyrrolidine-1-yl)-6-methoxy-7-(4-(pyrrolidine-1-yl)-1-butyne-1-yl)quinazoline-4-amine] had a pIC50 in assay [1] of 6.00 to 7.00.
